According to US20260092071A1, “COMPOUNDS AND COMPOSITIONS AS SMARCA2/4 DEGRADERS AND USES THEREOF” (REGENTS OF THE UNIVERSITY OF MICHIGAN, priority 2022, published 2026):

What was measured:
SMARCA2 = SMARCA2 (Homo sapiens, UniProt P51531); experiment: HiBit assay in engineered HT1080 CRISPR knock-in cell, 6 hrs (B series), SMARCA2; format: cell-based; conditions: 6 hrs incubation; for DC50: read-out: SMARC A2 HT1080 HiBit DC50; for Dmax: HT-1080, HT1080 CRISPR knock-in cells, read-out: SMARC A2 HT1080 HiBit Dmax (%)
How it was run: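 Protein abundance is measured in HiBiT-tagged HT1080 CRISPR knock-in cells after a 6 hr compound treatment (0.1% DMSO) by lytic Nano-Glo HiBiT luminescence.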

SMARCA4 = SMARCA4 (Homo sapiens, UniProt P51532); experiment: HiBit assay in engineered HT1080 CRISPR knock-in cell, 6 hrs (B series), SMARCA4; format: cell-based; conditions: 6 hrs incubation; for DC50: read-out: SMARC A4 HT1080 HiBit DC50; for Dmax: HT-1080, HT1080 CRISPR knock-in cells, read-out: SMARC A4 HT1080 HiBit Dmax(%)
How it was run: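 HT1080 CRISPR knock-in cells carrying the HiBiT tag were seeded onto compounds (final DMSO 0.1%) and incubated 6 hrs at 37° C, 5% CO2. Remaining tagged protein was detected by lytic HiBiT luminescence after adding LgBiT protein and substrate, with LgBiT-free wells serving as negative control.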

Sequence of SMARCA4 (P51532 whole entry): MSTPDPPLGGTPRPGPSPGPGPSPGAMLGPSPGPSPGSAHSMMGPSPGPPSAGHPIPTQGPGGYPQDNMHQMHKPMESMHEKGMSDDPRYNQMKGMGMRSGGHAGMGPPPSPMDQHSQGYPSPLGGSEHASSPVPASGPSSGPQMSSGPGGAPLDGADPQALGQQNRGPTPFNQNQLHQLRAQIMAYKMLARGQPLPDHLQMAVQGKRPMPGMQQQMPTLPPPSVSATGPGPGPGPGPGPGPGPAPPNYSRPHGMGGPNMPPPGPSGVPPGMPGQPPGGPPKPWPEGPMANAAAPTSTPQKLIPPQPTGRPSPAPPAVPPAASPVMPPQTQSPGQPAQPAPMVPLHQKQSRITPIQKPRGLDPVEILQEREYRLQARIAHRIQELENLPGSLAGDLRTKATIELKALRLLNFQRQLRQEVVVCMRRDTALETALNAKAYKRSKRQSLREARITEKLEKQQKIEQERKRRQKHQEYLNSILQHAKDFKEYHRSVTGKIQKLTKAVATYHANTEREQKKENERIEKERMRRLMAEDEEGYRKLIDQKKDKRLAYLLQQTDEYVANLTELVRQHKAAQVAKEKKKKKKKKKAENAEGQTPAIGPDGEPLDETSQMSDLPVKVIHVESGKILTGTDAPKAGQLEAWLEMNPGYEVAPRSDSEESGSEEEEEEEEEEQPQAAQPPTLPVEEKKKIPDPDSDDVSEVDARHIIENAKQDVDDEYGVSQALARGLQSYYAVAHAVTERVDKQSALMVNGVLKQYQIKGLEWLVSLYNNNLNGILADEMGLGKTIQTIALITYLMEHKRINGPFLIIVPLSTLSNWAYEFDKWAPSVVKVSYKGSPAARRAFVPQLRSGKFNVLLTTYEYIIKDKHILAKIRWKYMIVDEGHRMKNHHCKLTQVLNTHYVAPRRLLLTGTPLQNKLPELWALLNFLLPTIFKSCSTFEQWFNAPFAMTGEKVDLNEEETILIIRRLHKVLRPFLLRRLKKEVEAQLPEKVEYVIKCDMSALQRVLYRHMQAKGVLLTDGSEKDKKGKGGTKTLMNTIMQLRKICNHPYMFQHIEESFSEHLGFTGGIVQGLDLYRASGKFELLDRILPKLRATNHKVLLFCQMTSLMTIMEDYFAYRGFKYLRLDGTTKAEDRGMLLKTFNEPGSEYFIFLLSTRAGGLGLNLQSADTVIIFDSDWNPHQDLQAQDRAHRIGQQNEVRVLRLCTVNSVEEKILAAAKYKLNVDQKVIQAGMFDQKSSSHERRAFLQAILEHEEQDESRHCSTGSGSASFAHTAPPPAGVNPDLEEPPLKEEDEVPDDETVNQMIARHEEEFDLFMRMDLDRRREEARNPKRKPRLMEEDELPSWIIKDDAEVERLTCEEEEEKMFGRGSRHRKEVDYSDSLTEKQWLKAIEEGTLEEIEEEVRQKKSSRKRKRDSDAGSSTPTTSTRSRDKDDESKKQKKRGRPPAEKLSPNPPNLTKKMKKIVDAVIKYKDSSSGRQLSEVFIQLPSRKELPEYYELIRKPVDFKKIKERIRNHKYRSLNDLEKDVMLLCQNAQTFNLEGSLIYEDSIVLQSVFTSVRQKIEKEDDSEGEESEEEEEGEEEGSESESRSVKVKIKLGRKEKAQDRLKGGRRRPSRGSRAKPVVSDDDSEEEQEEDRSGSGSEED
Sequence of SMARCA2 (P51531 whole entry): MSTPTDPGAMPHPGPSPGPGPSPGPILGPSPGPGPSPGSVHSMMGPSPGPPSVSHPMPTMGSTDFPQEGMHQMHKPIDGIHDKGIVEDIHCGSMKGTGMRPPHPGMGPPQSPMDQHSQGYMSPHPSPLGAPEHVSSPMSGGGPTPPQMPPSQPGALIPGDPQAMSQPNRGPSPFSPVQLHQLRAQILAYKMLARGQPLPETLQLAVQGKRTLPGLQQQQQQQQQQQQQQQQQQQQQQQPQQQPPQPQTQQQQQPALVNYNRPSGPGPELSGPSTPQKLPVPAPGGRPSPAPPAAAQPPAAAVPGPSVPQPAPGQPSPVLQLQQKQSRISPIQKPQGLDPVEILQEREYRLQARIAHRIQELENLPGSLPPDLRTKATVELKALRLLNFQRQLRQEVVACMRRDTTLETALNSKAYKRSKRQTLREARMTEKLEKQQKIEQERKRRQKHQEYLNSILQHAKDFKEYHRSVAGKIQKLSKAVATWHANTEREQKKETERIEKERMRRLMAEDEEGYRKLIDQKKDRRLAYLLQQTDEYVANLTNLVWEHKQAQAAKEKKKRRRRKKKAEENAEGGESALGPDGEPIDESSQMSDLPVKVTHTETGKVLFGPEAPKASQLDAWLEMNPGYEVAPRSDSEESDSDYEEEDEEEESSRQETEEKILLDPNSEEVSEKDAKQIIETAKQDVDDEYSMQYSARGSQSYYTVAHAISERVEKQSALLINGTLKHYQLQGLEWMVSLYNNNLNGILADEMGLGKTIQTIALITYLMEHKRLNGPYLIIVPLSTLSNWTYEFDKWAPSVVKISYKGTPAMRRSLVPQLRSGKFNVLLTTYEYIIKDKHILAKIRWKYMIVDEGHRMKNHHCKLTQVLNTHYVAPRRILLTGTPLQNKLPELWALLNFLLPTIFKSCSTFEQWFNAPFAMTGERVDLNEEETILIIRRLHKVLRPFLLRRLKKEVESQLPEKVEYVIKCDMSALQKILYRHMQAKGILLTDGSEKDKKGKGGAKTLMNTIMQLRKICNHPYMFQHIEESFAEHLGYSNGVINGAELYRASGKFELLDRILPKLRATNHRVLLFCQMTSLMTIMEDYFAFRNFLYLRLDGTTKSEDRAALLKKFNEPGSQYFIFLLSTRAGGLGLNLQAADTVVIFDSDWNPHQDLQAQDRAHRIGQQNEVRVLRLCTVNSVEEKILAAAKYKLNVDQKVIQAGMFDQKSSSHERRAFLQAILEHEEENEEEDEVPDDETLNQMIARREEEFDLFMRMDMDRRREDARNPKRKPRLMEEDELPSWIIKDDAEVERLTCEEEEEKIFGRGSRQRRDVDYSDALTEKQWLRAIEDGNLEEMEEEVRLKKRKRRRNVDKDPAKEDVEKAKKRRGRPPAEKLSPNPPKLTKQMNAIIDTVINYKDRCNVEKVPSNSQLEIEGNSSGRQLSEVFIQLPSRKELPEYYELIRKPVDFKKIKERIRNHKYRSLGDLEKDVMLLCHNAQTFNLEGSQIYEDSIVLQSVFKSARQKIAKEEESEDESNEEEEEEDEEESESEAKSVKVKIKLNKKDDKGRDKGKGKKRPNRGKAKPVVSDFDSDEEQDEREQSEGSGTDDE

Structure (SMILES) | DC50 (SMARCA2; HT1080 CRISPR knock-in cells) | Dmax (SMARCA2) | DC50 (SMARCA4; HT1080 CRISPR knock-in cells) | Dmax (SMARCA4) | SMARC A2 HT1080 HiBit Dmax (%) (SMARCA2; HT1080 CRISPR knock-in cells) | SMARC A4 HT1080 HiBit Dmax(%) (SMARCA4; HT1080 CRISPR knock-in cells)
Cc1ncsc1-c1ccc([C@H](C)NC(=O)[C@@H]2C[C@@H](O)CN2C(=O)[C@@H](c2cc(OCC3(CN4CCC(c5ccc6c(c5)C(C)(C)c5nc(=O)c7c(Cl)cccc7n5-6)CC4)CC3)no2)C(C)C)cc1 [Compound B82, (2S,4R)-1-((R)-2-(3-((1-((4-(4-chloro-7,7-dimethyl-5-oxo-5,7-dihydroindolo[1,2-a]quinazolin-9-yl)piperidin-1-yl)methyl)cyclopropyl)methoxy)isoxazol-5-yl)-3-methylbutanoyl)-4-hydroxy-N-((S)-1-(4-(4-methylthiazol-5-yl)phenyl)ethyl)pyrrolidine-2-carboxamide] | < 0.1 µM | 70 to 90% | < 0.1 µM | 50 to 69% | – | –
Cc1ncsc1-c1ccc([C@H](C)NC(=O)[C@@H]2C[C@@H](O)CN2C(=O)[C@@H](NC(=O)CCCn2cc(-c3ccc4c(c3)-n3c(nc(=O)c5c(Cl)cccc53)C4(C)C)cn2)C(C)(C)C)cc1 [Compound B83, (2S,4R)-1-((S)-2-(4-(4-(4-chloro-7,7-dimethyl-5-oxo-5,7-dihydroindolo[1,2-a]quinazolin-10-yl)-1H-pyrazol-1-yl)butanamido)-3,3-dimethylbutanoyl)-4-hydroxy-N-((S)-1-(4-(4-methylthiazol-5-yl)phenyl)ethyl)pyrrolidine-2-carboxamide] | 0.1 to 0.5 µM | < 50% | > 1 µM | < 50% | – | –
Cc1cc(C(C(=O)N2C[C@H](O)C[C@H]2C(=O)N[C@@H](C)c2ccc(-c3scnc3C#CCN3CCC(c4cccc5c4C(C)(C)c4nc(=O)c6c(Cl)cccc6n4-5)CC3)cc2)C(C)C)on1 (stereo partly drawn) [Compound B150, (2S,4R)-N-((S)-1-(4-(4-(3-(4-(4-chloro-7,7-dimethyl-5-oxo-5,7-dihydroindolo[1,2-a]quinazolin-8-yl)piperidin-1-yl)prop-1-yn-1-yl)thiazol-5-yl)phenyl)ethyl)-4-hydroxy-1-(3-methyl-2-(3-methylisoxazol-5-yl)butanoyl)pyrrolidine-2-carboxamide] | < 0.1 µM | 50 to 69% | 0.1 to 0.5 µM | < 50% | – | –
Cc1ncsc1-c1ccc([C@H](CN2CCOCC2)NC(=O)[C@@H]2C[C@@H](O)CN2C(=O)[C@@H](n2cc([C@H]3CC[C@H](CN4CCC(c5ccc6c(c5)-n5c(nc(=O)c7c(Br)cccc75)C6(C)C)CC4)CC3)nn2)C(C)(C)C)cc1 [Compound B105, (2S,4R)-1-((S)-2-(4-((1r,4S)-4-((4-(4-bromo-7,7-dimethyl-5-oxo-5,7-dihydroindolo[1,2-a]quinazolin-10-yl)piperidin-1-yl)methyl)cyclohexyl)-1H-1,2,3-triazol-1-yl)-3,3-dimethylbutanoyl)-4-hydroxy-N—((R)-1-(4-(4-methylthiazol-5-yl)phenyl)-2-morpholinoethyl)pyrrolidine-2-carboxamide] | < 0.1 µM | > 90% | 0.1 to 0.5 µM | 70 to 90% | – | –
Cc1ncsc1-c1ccc([C@H](C)NC(=O)[C@@H]2C[C@@H](O)CN2C(=O)[C@H](C(C)C)n2cc(CN3CCC(c4ccc5c(c4)-n4c(nc(=O)c6c(Cl)cccc64)C5(C)C)CC3)nn2)cc1 [Compound B49, (2S,4R)-1-((S)-2-(4-((4-(4-chloro-7,7-dimethyl-5-oxo-5,7-dihydroindolo[1,2-a]quinazolin-10-yl)piperidin-1-yl)methyl)-1H-1,2,3-triazol-1-yl)-3-methylbutanoyl)-4-hydroxy-N-((S)-1-(4-(4-methylthiazol-5-yl)phenyl)ethyl)pyrrolidine-2-carboxamide] | < 0.1 µM | 70 to 90% | > 1 µM | < 50% | – | –
Cc1nc(C)c(-c2ccc([C@H](C)NC(=O)[C@@H]3C[C@@H](O)CN3C(=O)[C@@H](n3cc([C@H]4CC[C@H](CN5CCN(c6ccc7c(c6)-n6c(nc(=O)c8c(Cl)cccc86)C76CCCCC6)CC5)CC4)nn3)C(C)(C)C)cc2)s1 [Compound B168, (2S,4R)-1-((S)-2-(4-((1,4S)-4-((4-(4′-chloro-5′-oxo-5′H-spiro[cyclohexane-1,7′-indolo[1,2-a]quinazolin]-10′-yl)piperazin-1-yl)methyl)cyclohexyl)-1H-1,2,3-triazol-1-yl)-3,3-dimethylbutanoyl)-N-((S)-1-(4-(2,4-dimethylthiazol-5-yl)phenyl)ethyl)-4-hydroxypyrrolidine-2-carboxamide] | < 0.1 µM | > 90% | 0.1 to 0.5 µM | 70 to 90% | – | –
Cc1ncsc1-c1ccc([C@H](C)NC(=O)[C@@H]2C[C@@H](O)CN2C(=O)[C@@H](c2cc(N3CCC(CN4CCC(c5ccc6c(c5)-n5c(nc(=O)c7c(Cl)cccc75)C6(C)C)CC4)CC3)no2)C(C)C)cc1 [Compound B37, (2S,4R)-1-((R)-2-(3-(4-((4-(4-chloro-7,7-dimethyl-5-oxo-5,7-dihydroindolo[1,2-a]quinazolin-10-yl)piperidin-1-yl)methyl)piperidin-1-yl)isoxazol-5-yl)-3-methylbutanoyl)-4-hydroxy-N-((S)-1-(4-(4-methylthiazol-5-yl)phenyl)ethyl)pyrrolidine-2-carboxamide] | < 0.1 µM | > 90% | < 0.1 µM | 70 to 90% | – | –
Cc1ncsc1-c1ccc([C@H](CC(=O)NCC2CCC(N3CCC(c4ccc5c(c4)-n4c(nc(=O)c6c(Cl)cccc64)C5(C)C)CC3)CC2)NC(=O)[C@@H]2C[C@@H](O)CN2C(=O)[C@@H](NC(=O)C2(F)CC2)C(C)(C)C)cc1 (stereo partly drawn) [Compound B54, (2S,4R)-N-((S)-3-(((4-(4-(4-chloro-7,7-dimethyl-5-oxo-5,7-dihydroindolo[1,2-a]quinazolin-10-yl)piperidin-1-yl)cyclohexyl)methyl)amino)-1-(4-(4-methylthiazol-5-yl)phenyl)-3-oxopropyl)-1-((S)-2-(1-fluorocyclopropane-1-carboxamido)-3,3-dimethylbutanoyl)-4-hydroxypyrrolidine-2-carboxamide] | 0.1 to 0.5 µM | – | 0.1 to 0.5 µM | – | D (D (<50% degradation)) | D (D (<50% degradation))
Cc1ncsc1-c1ccc([C@H](C)NC(=O)[C@@H]2C[C@@H](O)CN2C(=O)[C@@H](c2cc(OC3CCC(CN4CCC(c5ccc6c(c5)C(C)(C)c5nc(=O)c7c(Cl)cccc7n5-6)CC4)CC3)no2)C(C)C)cc1 (stereo partly drawn) [Compound B30, (2S,4R)-1-((R)-2-(3-((4-((4-(4-chloro-7,7-dimethyl-5-oxo-5,7-dihydroindolo[1,2-a]quinazolin-9-yl)piperidin-1-yl)methyl)cyclohexyl)oxy)isoxazol-5-yl)-3-methylbutanoyl)-4-hydroxy-N-((S)-1-(4-(4-methylthiazol-5-yl)phenyl)ethyl)pyrrolidine-2-carboxamide] | < 0.1 µM | > 90% | < 0.1 µM | > 90% | – | –
Cc1ncsc1-c1ccc([C@H](C)NC(=O)[C@@H]2C[C@@H](O)CN2C(=O)[C@@H](NC(=O)[C@H]2CC[C@H](Cn3cc(-c4ccc5c(c4)C(C)(C)c4nc(=O)c6c(Cl)cccc6n4-5)cn3)CC2)C(C)(C)C)cc1 [Compound B48, (2S,4R)-1-((S)-2-((1r,4S)-4-((4-(4-chloro-7,7-dimethyl-5-oxo-5,7-dihydroindolo[1,2-a]quinazolin-9-yl)-1H-pyrazol-1-yl)methyl)cyclohexane-1-carboxamido)-3,3-dimethylbutanoyl)-4-hydroxy-N—((S)-1-(4-(4-methylthiazol-5-yl)phenyl)ethyl)pyrrolidine-2-carboxamide] | < 0.1 µM | 70 to 90% | 0.1 to 0.5 µM | < 50% | – | –
